Experimental data published in patent US20160158200A1, “Combinations of Hepatitis C Virus Inhibitors” (priority 2013, published 2016).

How the values were obtained:
[1] = test system: HCV genotype 1a L31V variant with leucine 31 changed to valine in the NS5A protein; assay: microbe, parasite or virus in culture; assay type: cell-based; settings: genotype 1a L31V replicon; test compound titrated with compound N47 fixed at 200 nM versus singly
[2] = test system: HCV genotype 1a Y93H variant with tyrosine 93 changed to histidine in the NS5A protein; assay: microbe, parasite or virus in culture; assay type: cell-based; settings: genotype 1a Y93H replicon; test compound titrated with compound N47 fixed at 200 nM versus singly
Protocol: Combinations can be examined for synergistic activity using a variety of putative NS5A-targeting compounds and a variety of test compounds. […] The test compound can be chosen from compounds exemplified below, which were prepared by methods known in the art, or from others disclosed in the literature.
Similarly, BMS-790052 can be tested singly and in combination with a fixed amount of compound N47 in the HCV replicon cell based assay consisting of the genotype 1a Y93H variant with tyrosine 93 changed to histidine in the NS5A protein.

| Compound | Fold-Synergistic G-1a (L31V) [1] [fold] | Fold-Synergistic G-1a (Y93H) [2] [fold] |
| --- | --- | --- |
| COC(=O)N[C@H](C(=O)N1CCC[C@H]1c1nc2ccc(C#CC#Cc3ccc4nc([C@@H]5CCCN5C(=O)[C@@H](NC(=O)OC)C(C)C)[nH]c4c3)cc2[nH]1)C(C)C | >100 | >10 |
| COC(=O)N[C@H](C(=O)N1CCC[C@H]1c1nc2cc(-c3ccc4cc(-c5ccc6[nH]c([C@@H]7CCCN7C(=O)[C@@H](NC(=O)OC)C(C)C)nc6c5)ccc4c3)ccc2[nH]1)C(C)C | >10 | >10 |
| COC(=O)N[C@H](C(=O)N1CCC[C@H]1c1nc(-c2ccc(-c3ccc4c(c3)CCCCc3[nH]c([C@@H]5CCCN5C(=O)[C@@H](NC(=O)OC)C(C)C)nc3-4)cc2)c[nH]1)C(C)C | >100 | >100 |
| COc1ccc(-c2ccc(-c3cnc([C@@H]4CCCN4C(=O)[C@@H](c4ccccc4)N(C)C)[nH]3)cc2)cc1-c1cnc([C@@H]2CCCN2C(=O)[C@@H](c2ccccc2)N(C)C)[nH]1 | <10 | <10 |
| COC(=O)N[C@H](C(=O)N1CCC[C@H]1c1ncc(-c2ccc(-c3ccc4c(c3)CCc3nc([C@@H]5CCCN5C(=O)[C@@H](NC(=O)OC)C(C)C)[nH]c3-4)cc2)[nH]1)C(C)C | >100 | >100 |
| COC(=O)N[C@H](C(=O)N1CCC[C@H]1c1nc2cc(-c3ccc4ccc(-c5ccc6nc([C@@H]7CCCN7C(=O)[C@@H](NC(=O)OC)C(C)C)[nH]c6c5)cc4c3)ccc2[nH]1)C(C)C | >10 | >10 |
| COC(=O)N[C@H](C(=O)N1CCC[C@H]1c1ncc(-c2ccc3oc(-c4ccc5nc([C@@H]6CCCN6C(=O)[C@@H](NC(=O)OC)C(C)C)[nH]c5c4)nc3c2)[nH]1)C(C)C | >100 | >100 |
| COC(=O)N[C@H](C(=O)N1CCC[C@H]1c1nc(-c2ccc(-c3ccc(-c4ccc5nc([C@@H]6CCCN6C(=O)[C@@H](NC(=O)OC)C(C)C)[nH]c5c4)cc3)cc2)c[nH]1)C(C)C | >10 | >10 |
| C[C@](O)(C(=O)N1CCC[C@H]1c1nc2ccc(-c3ccc(-c4ccc5nc([C@@H]6CCCN6C(=O)[C@](C)(O)c6ccccc6)[nH]c5c4)o3)cc2[nH]1)c1ccccc1 | <10 | <10 |
| C[C@H](NC(=O)[C@@H](O)c1ccccc1)C(=O)Nc1ccc(-c2cnc(-c3ccc(NC(=O)[C@H](C)NC(=O)[C@@H](O)c4ccccc4)cc3)o2)cc1 | <10 | <10 |
| O=C(Nc1ccc(/C=C/c2ccc(NC(=O)[C@@H]3CCCN3C(=O)Cc3cccnc3)nc2)cn1)[C@@H]1CCCN1C(=O)Cc1cccnc1 | <10 | <10 |
| CC(C)[C@H](NC(=O)OCc1ccccc1)C(=O)Nc1ccc(-c2cnc(-c3ccc(NC(=O)[C@@H](NC(=O)OCc4ccccc4)C(C)C)cc3)o2)cc1 | <10 | <10 |
| C[C@H](NC(=O)OCc1ccccc1)c1nc2ccc(CCc3ccc4nc([C@H](C)NC(=O)OCc5ccccc5)[nH]c4c3)cc2[nH]1 | <10 | <10 |
| COC(=O)N[C@H](C(=O)N1CCC[C@H]1c1nc(-c2ccc(C#Cc3ccc(-c4ccc(-c5c[nH]c([C@@H]6CCCN6C(=O)[C@@H](NC(=O)OC)C(C)C)n5)cc4)cc3)cc2)c[nH]1)C(C)C | <10 | <10 |
| CC[C@H](NC(=O)OC)C(=O)N1[C@@H]2C[C@@H]2C[C@H]1c1ncc(-c2ccc(C34CCC(c5cnc([C@@H]6C[C@H]7C[C@H]7N6C(=O)[C@H](CC)NC(=O)OC)[nH]5)(CC3)CC4)cc2)[nH]1 | >100 | >100 |
| CN(C)[C@@H](C(=O)Nc1cccc(-c2ncc(-c3ccc4nc([C@@H]5CCCN5C(=O)[C@@H](c5ccccc5)N(C)C)[nH]c4c3)o2)c1)c1ccccc1 | <10 | <10 |
| COC(=O)N[C@@H](C(=O)N1CCC[C@H]1c1ncc(-c2ccc(-c3ccc(-c4cnc([C@@H]5CCCN5C(=O)[C@H]5CCCO5)[nH]4)cc3)cc2)[nH]1)c1ccccc1 | <10 | <10 |
| COC(=O)N[C@H](C(=O)N1C[C@@H](C)C[C@H]1c1ncc(-c2ccc(-c3ccc4cc(-c5cnc([C@@H]6C[C@H](C)CN6C(=O)[C@@H](NC(=O)OC)C(C)C)[nH]5)ccc4c3)cc2)[nH]1)C(C)C | <10 | >10 |
| O=C(Cc1ccccc1)N1CCC[C@H]1c1nc2ccc(-c3cnc([C@@H]4CCCN4C(=O)Cc4ccccc4)o3)cc2[nH]1 | <10 | <10 |

| Compound | Fold-Synergistic G-1a (L31V) [1] [fold] | Fold-Synergistic G-1a (Y93H) [2] [fold] |
| --- | --- | --- |
| O=C(Nc1ccc(-c2nnc(-c3ccc(NC(=O)[C@@H]4CCCN4C(=O)Cc4cccnc4)cc3)o2)cc1)[C@@H]1CCCN1C(=O)Cc1cccnc1 | <10 | <10 |
| O=C(OCc1ccccc1)N1C[C@H](O)C[C@H]1c1nc2cc(C#Cc3ccc4[nH]c([C@@H]5C[C@@H](O)CN5C(=O)OCc5ccccc5)nc4c3)ccc2[nH]1 | <10 | <10 |
| CN1CCN(C(C(=O)N2CCC[C@H]2C(=O)Nc2ccc(C#Cc3ccc(NC(=O)[C@@H]4CCCN4C(=O)C(c4ccccc4)N4CCN(C)CC4)cc3)cc2)c2ccccc2)CC1 (some centres unmarked) | <10 | <10 |
| COC(=O)N[C@H](C(=O)N1[C@@H]2C[C@@H]2C[C@H]1c1ncc(-c2ccc([C@H]3C[C@@H]3c3ccc(-c4cnc([C@@H]5C[C@H]6C[C@H]6N5C(=O)[C@@H](NC(=O)OC)C(C)C)[nH]4)cc3)cc2)[nH]1)C(C)C | >10 | <10 |
| CCC1(c2ccc(NC(=O)[C@@H]3C[C@H]4C[C@H]4N3C(=O)[C@@H](NC(=O)OC)C(C)C)cc2)CC2C3CC4CC(c5ccc(NC(=O)[C@@H]6C[C@H]7C[C@H]7N6C(=O)[C@@H](NC(=O)OC)C(C)C)cc5)(C3)CC2C4C1 (some centres unmarked) | <10 | <10 |
| COC(=O)N[C@H](C(=O)N1CCC[C@H]1c1nc(-c2cccc(-c3ccc4nc([C@@H]5CCCN5C(=O)[C@@H](NC(=O)OC)C(C)C)[nH]c4c3)c2)c[nH]1)C(C)C | <10 | <10 |
| COC(=O)N[C@H](C(=O)N1CCC[C@H]1c1nc2cc(-c3ccc4cc(-c5cnc6[nH]c([C@@H]7CCCN7C(=O)[C@@H](NC(=O)OC)C(C)C)nc6c5)ccc4c3)cnc2[nH]1)C(C)C | >10 | >10 |
| CN(C)[C@@H](C(=O)N1CCC[C@H]1c1nc(-c2ccc(COc3ccc(-c4c[nH]c([C@@H]5CCCN5C(=O)[C@@H](c5ccccc5)N(C)C)n4)cc3)cc2)c[nH]1)c1ccccc1 | <10 | <10 |
| COC(=O)N[C@H](C(=O)N1CCOC[C@H]1c1nc(-c2ccc(-c3ccc4cc(-c5c[nH]c([C@@H]6COCCN6C(=O)[C@@H](NC(=O)OC)C(C)C)n5)ccc4c3)cc2)c[nH]1)C(C)C | >10 | >10 |
| COC(=O)N[C@H](C(=O)N1C[C@H](C)C[C@H]1c1ncc(-c2ccc(-c3ccc4cc(-c5cnc([C@@H]6C[C@@H](C)CN6C(=O)[C@@H](NC(=O)OC)C(C)C)[nH]5)ccc4c3)cc2)[nH]1)C(C)C | <10 | >10 |
| O=C(Nc1ccc(/C=C/c2ccc(NC(=O)[C@@H]3CCCN3C(=O)Cc3ccccc3)cc2)cc1)[C@@H]1CCCN1C(=O)Cc1ccccc1 | <10 | <10 |
| COC(=O)N[C@@H](C(=O)N1CCC[C@H]1c1ncc(-c2ccc(-c3ccc(-c4cnc([C@@H]5CCCN5C(=O)[C@H](NC(=O)OC)c5ccccc5)[nH]4)cc3)cc2)[nH]1)c1ccccc1 | >10 | <10 |
| CN(C)C(C(=O)N1CCC[C@H]1c1nc(-c2ccc3nc([C@@H]4CCCN4C(=O)C(c4ccccc4)N(C)C)[nH]c3c2)c[nH]1)c1ccccc1 (some centres unmarked) | <10 | <10 |
| COC(=O)N[C@H](C(=O)N(C)[C@@H](C)c1ncc(-c2ccc(C#Cc3ccc(-c4cnc([C@H](C)N(C)C(=O)[C@@H](NC(=O)OC)C(C)C)[nH]4)cc3)cc2)[nH]1)C(C)C | >10 | <10 |
| COc1cccc2c(C(=O)N3CCC[C@H]3C(=O)Nc3ccc(-c4ncc(-c5ccc6nc([C@@H]7CCCN7C(=O)c7nc(Cl)cc8c(OC)cccc78)[nH]c6c5)o4)cc3)nc(Cl)cc12 | <10 | <10 |
| COc1cccc2c(C(=O)N3CCC[C@H]3c3nc4ccc(-c5cnc(-c6cccc(O)c6)o5)cc4[nH]3)nc(Cl)cc12 | <10 | <10 |
| Cc1nc(-c2ccc(NC(=O)[C@@H]3CCCN3C(=O)Cc3ccccc3)cc2)c(-c2ccc(NC(=O)[C@@H]3CCCN3C(=O)Cc3ccccc3)cc2)s1 | <10 | <10 |
| CC(=O)N1CCC[C@H]1C(=O)Nc1ccc(-c2nc(-c3ccc(NC(=O)[C@@H]4C=CCN4C(=O)Cc4ccccc4)cc3)cs2)cc1 | <10 | <10 |
